Test results from PubChem BioAssay (NCI).
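How tested: cells in 96-well plates exposed to compound for 48 hours at five concentrations. The concentration for 50% growth inhibition is given as GI50. TGI: concentration producing complete growth inhibition.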

Assays:
Assay in all cases: NCI-60 cell line screen, 48 h
786-0 renal = system: 786-0 renal
A498 renal = system: A498 renal
A549 NSCLC = system: A549 NSCLC
ACHN renal = system: ACHN renal
CAKI-1 renal = system: CAKI-1 renal
CCRF-CEM leukemia = system: CCRF-CEM leukemia
COLO 205 colon = system: COLO 205 colon
DU-145 prostate = system: DU-145 prostate
EKVX NSCLC = system: EKVX NSCLC
HCC-2998 colon = system: HCC-2998 colon
HCT-116 colon = system: HCT-116 colon
HCT-15 colon = system: HCT-15 colon
HL-60(TB) leukemia = system: HL-60(TB) leukemia
HOP-62 NSCLC = system: HOP-62 NSCLC
HOP-92 NSCLC = system: HOP-92 NSCLC
HS 578T breast = system: HS 578T breast
HT29 colon = system: HT29 colon
IGROV1 ovarian = system: IGROV1 ovarian
K-562 leukemia = system: K-562 leukemia
KM12 colon = system: KM12 colon
LOX IMVI melanoma = system: LOX IMVI melanoma
M14 melanoma = system: M14 melanoma
MALME-3M melanoma = system: MALME-3M melanoma
MDA-MB-231 breast = system: MDA-MB-231 breast
MDA-MB-435 = system: MDA-MB-435
MDA-N = system: MDA-N
MOLT-4 leukemia = system: MOLT-4 leukemia
NCI-H226 lung = system: NCI-H226 lung
NCI-H23 lung = system: NCI-H23 lung
NCI-H460 lung = system: NCI-H460 lung
NCI-H522 lung = system: NCI-H522 lung
NCI/ADR-RES ovarian = system: NCI/ADR-RES ovarian
OVCAR-3 ovarian = system: OVCAR-3 ovarian
OVCAR-4 ovarian = system: OVCAR-4 ovarian
OVCAR-5 ovarian = system: OVCAR-5 ovarian
OVCAR-8 ovarian = system: OVCAR-8 ovarian
PC-3 prostate = system: PC-3 prostate
RPMI-8226 leukemia = system: RPMI-8226 leukemia
RXF 393 renal = system: RXF 393 renal
SF-268 CNS = system: SF-268 CNS
SF-295 CNS = system: SF-295 CNS
SF-539 CNS = system: SF-539 CNS
SK-MEL-28 melanoma = system: SK-MEL-28 melanoma
SK-MEL-5 melanoma = system: SK-MEL-5 melanoma
SN12C renal = system: SN12C renal
SNB-19 CNS = system: SNB-19 CNS
SNB-75 CNS = system: SNB-75 CNS
SR leukemia = system: SR leukemia
SW-620 colon = system: SW-620 colon
TK-10 renal = system: TK-10 renal
U251 CNS = system: U251 CNS
UACC-257 melanoma = system: UACC-257 melanoma
UACC-62 melanoma = system: UACC-62 melanoma
UO-31 renal = system: UO-31 renal
BT-549 breast = system: BT-549 breast
MCF7 breast = system: MCF7 breast
SK-MEL-2 melanoma = system: SK-MEL-2 melanoma
SK-OV-3 ovarian = system: SK-OV-3 ovarian
T-47D breast = system: T-47D breast

O=c1c2cc([N+](=O)[O-])ccc2[nH]n1Cc1ccccn1
TGI (786-0 renal): > 100 µM
TGI (A498 renal): > 100 µM
TGI (A549 NSCLC): > 100 µM
TGI (ACHN renal): > 100 µM
TGI (CAKI-1 renal): > 100 µM
TGI (CCRF-CEM leukemia): > 100 µM
TGI (COLO 205 colon): > 100 µM
TGI (DU-145 prostate): > 100 µM
TGI (EKVX NSCLC): > 100 µM
TGI (HCC-2998 colon): > 100 µM
TGI (HCT-116 colon): > 100 µM
TGI (HCT-15 colon): > 100 µM
TGI (HL-60(TB) leukemia): > 100 µM
TGI (HOP-62 NSCLC): > 100 µM
TGI (HOP-92 NSCLC): > 100 µM
TGI (HS 578T breast): > 100 µM
TGI (HT29 colon): > 100 µM
TGI (IGROV1 ovarian): > 100 µM
TGI (K-562 leukemia): > 100 µM
TGI (KM12 colon): > 100 µM
TGI (LOX IMVI melanoma): > 100 µM
TGI (M14 melanoma): > 100 µM
TGI (MALME-3M melanoma): > 100 µM
TGI (MDA-MB-231 breast): > 100 µM
TGI (MDA-MB-435): > 100 µM
TGI (MDA-N): > 100 µM
TGI (MOLT-4 leukemia): > 100 µM
TGI (NCI-H226 lung): > 100 µM
TGI (NCI-H23 lung): > 100 µM
TGI (NCI-H460 lung): > 100 µM
TGI (NCI-H522 lung): > 100 µM
TGI (NCI/ADR-RES ovarian): > 100 µM
TGI (OVCAR-3 ovarian): > 100 µM
TGI (OVCAR-4 ovarian): > 100 µM
TGI (OVCAR-5 ovarian): > 100 µM
TGI (OVCAR-8 ovarian): > 100 µM
TGI (PC-3 prostate): > 100 µM
TGI (RPMI-8226 leukemia): > 100 µM
TGI (RXF 393 renal): > 100 µM
TGI (SF-268 CNS): > 100 µM
TGI (SF-295 CNS): > 100 µM
TGI (SF-539 CNS): > 100 µM
TGI (SK-MEL-28 melanoma): > 100 µM
TGI (SK-MEL-5 melanoma): > 100 µM
TGI (SN12C renal): > 100 µM
TGI (SNB-19 CNS): > 100 µM
TGI (SNB-75 CNS): > 100 µM
TGI (SR leukemia): > 100 µM
TGI (SW-620 colon): > 100 µM
TGI (TK-10 renal): > 100 µM
TGI (U251 CNS): > 100 µM
TGI (UACC-257 melanoma): > 100 µM
TGI (UACC-62 melanoma): > 100 µM
TGI (UO-31 renal): > 100 µM

CCOc1nc(-c2ccccc2)cc2c(O)c(C(=O)N/N=C/c3ccc(O)cc3O)[nH]c(=O)c12
GI50 (786-0 renal): 2.31 µM
TGI (786-0 renal): 8.34 µM
GI50 (A498 renal): 3.64 µM
TGI (A498 renal): 28.5 µM
GI50 (A549 NSCLC): 6.5 µM
TGI (A549 NSCLC): > 100 µM
GI50 (ACHN renal): 1.79 µM
TGI (ACHN renal): > 35.5 µM
GI50 (BT-549 breast): 1.65 µM
TGI (BT-549 breast): > 26.3 µM
GI50 (CAKI-1 renal): 1.91 µM
TGI (CAKI-1 renal): > 29.5 µM
GI50 (CCRF-CEM leukemia): 0.357 µM
TGI (CCRF-CEM leukemia): > 23.2 µM
GI50 (COLO 205 colon): 0.751 µM
TGI (COLO 205 colon): 12.6 µM
GI50 (DU-145 prostate): 2.61 µM
TGI (DU-145 prostate): 25.5 µM
GI50 (EKVX NSCLC): 2.5 µM
TGI (EKVX NSCLC): > 100 µM
GI50 (HCC-2998 colon): 1.95 µM
TGI (HCC-2998 colon): > 82.3 µM
GI50 (HCT-116 colon): 0.66 µM
TGI (HCT-116 colon): 17.5 µM
GI50 (HCT-15 colon): 1.5 µM
TGI (HCT-15 colon): > 100 µM
GI50 (HL-60(TB) leukemia): 1.44 µM
TGI (HL-60(TB) leukemia): 13.4 µM
GI50 (HOP-62 NSCLC): 1.65 µM
TGI (HOP-62 NSCLC): > 52.1 µM
GI50 (HOP-92 NSCLC): 4.42 µM
TGI (HOP-92 NSCLC): > 100 µM
GI50 (HS 578T breast): 14 µM
TGI (HS 578T breast): > 100 µM
GI50 (HT29 colon): 5.41 µM
TGI (HT29 colon): > 100 µM
GI50 (IGROV1 ovarian): 4.08 µM
TGI (IGROV1 ovarian): 59.5 µM
GI50 (K-562 leukemia): 1.62 µM
TGI (K-562 leukemia): > 100 µM
GI50 (KM12 colon): 5.73 µM
TGI (KM12 colon): > 100 µM
GI50 (LOX IMVI melanoma): 0.686 µM
TGI (LOX IMVI melanoma): 9.11 µM
GI50 (M14 melanoma): 1.45 µM
TGI (M14 melanoma): 7.16 µM
GI50 (MALME-3M melanoma): 2.86 µM
TGI (MALME-3M melanoma): > 40.5 µM
GI50 (MCF7 breast): 2.17 µM
TGI (MCF7 breast): > 32 µM
GI50 (MDA-MB-231 breast): 4.12 µM
TGI (MDA-MB-231 breast): > 93 µM
GI50 (MDA-MB-435): 4.05 µM
TGI (MDA-MB-435): > 100 µM
GI50 (MOLT-4 leukemia): 0.22 µM
TGI (MOLT-4 leukemia): > 94.4 µM
GI50 (NCI-H226 lung): 1.49 µM
TGI (NCI-H226 lung): 8.15 µM
GI50 (NCI-H23 lung): 4.66 µM
TGI (NCI-H23 lung): > 82.8 µM
GI50 (NCI-H460 lung): 3.6 µM
TGI (NCI-H460 lung): 27.6 µM
GI50 (NCI-H522 lung): 1.29 µM
TGI (NCI-H522 lung): 23.5 µM
GI50 (NCI/ADR-RES ovarian): 1.77 µM
TGI (NCI/ADR-RES ovarian): > 31.3 µM
GI50 (OVCAR-3 ovarian): 0.364 µM
TGI (OVCAR-3 ovarian): 10.6 µM
GI50 (OVCAR-4 ovarian): 0.407 µM
TGI (OVCAR-4 ovarian): > 40.8 µM
GI50 (OVCAR-5 ovarian): 7.06 µM
TGI (OVCAR-5 ovarian): > 100 µM
GI50 (OVCAR-8 ovarian): 0.965 µM
TGI (OVCAR-8 ovarian): > 37.1 µM
GI50 (PC-3 prostate): 5.55 µM
TGI (PC-3 prostate): > 100 µM
GI50 (RPMI-8226 leukemia): 5.62 µM
TGI (RPMI-8226 leukemia): 43 µM
GI50 (RXF 393 renal): 1.53 µM
TGI (RXF 393 renal): 11.9 µM
GI50 (SF-268 CNS): 0.766 µM
TGI (SF-268 CNS): 16.4 µM
GI50 (SF-295 CNS): 4.88 µM
TGI (SF-295 CNS): > 100 µM
GI50 (SF-539 CNS): 0.904 µM
TGI (SF-539 CNS): 6.06 µM
GI50 (SK-MEL-2 melanoma): 5.1 µM
TGI (SK-MEL-2 melanoma): 88.8 µM
GI50 (SK-MEL-28 melanoma): 2.32 µM
TGI (SK-MEL-28 melanoma): > 100 µM
GI50 (SK-MEL-5 melanoma): 1.48 µM
TGI (SK-MEL-5 melanoma): > 57.6 µM
GI50 (SK-OV-3 ovarian): 1.26 µM
TGI (SK-OV-3 ovarian): > 24.7 µM
GI50 (SN12C renal): 2.43 µM
TGI (SN12C renal): > 39 µM
GI50 (SNB-19 CNS): 1.42 µM
TGI (SNB-19 CNS): > 46.8 µM
GI50 (SNB-75 CNS): 3.16 µM
TGI (SNB-75 CNS): > 42 µM
TGI (SR leukemia): > 27.5 µM
GI50 (SW-620 colon): 1.88 µM
TGI (SW-620 colon): > 100 µM
GI50 (T-47D breast): 1.64 µM
TGI (T-47D breast): 50.1 µM
GI50 (TK-10 renal): 6.47 µM
TGI (TK-10 renal): > 100 µM
GI50 (U251 CNS): 0.789 µM
TGI (U251 CNS): > 100 µM
GI50 (UACC-257 melanoma): 2.93 µM
TGI (UACC-257 melanoma): 17.3 µM
GI50 (UACC-62 melanoma): 1.17 µM
GI50 (UO-31 renal): 1.52 µM
TGI (UO-31 renal): 16 µM
